Test results taken from PubChem BioAssay (NCI).
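Interpolation was linear, between the two tested concentrations surrounding the appropriate level; five concentrations were tested over 48 hours in 96-well plates. At the TGI there is no net growth.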

Experiments:
Assay in all cases: inhibition of tumour cell growth, NCI panel, 48 h
MALME-3M melanoma = test system: MALME-3M melanoma
NCI-H522 lung = test system: NCI-H522 lung
SNB-75 CNS = test system: SNB-75 CNS
LOX IMVI melanoma = test system: LOX IMVI melanoma
COLO 205 colon = test system: COLO 205 colon
HL-60(TB) leukemia = test system: HL-60(TB) leukemia
RPMI-8226 leukemia = test system: RPMI-8226 leukemia
SK-MEL-5 melanoma = test system: SK-MEL-5 melanoma
UO-31 renal = test system: UO-31 renal
ACHN renal = test system: ACHN renal
U251 CNS = test system: U251 CNS

CCN(CCN(CC)C(=O)Nc1ccccc1)C(=O)Nc1ccccc1
TGI (MALME-3M melanoma): > 100 µM | TGI (NCI-H522 lung): > 100 µM | TGI (SNB-75 CNS): > 100 µM | TGI (LOX IMVI melanoma): > 100 µM | TGI (COLO 205 colon): > 100 µM | TGI (HL-60(TB) leukemia): > 100 µM | TGI (RPMI-8226 leukemia): > 100 µM | TGI (SK-MEL-5 melanoma): > 100 µM | TGI (UO-31 renal): > 100 µM | TGI (ACHN renal): > 100 µM | TGI (U251 CNS): > 100 µM

CN=C(Nc1cccc(C(F)(F)F)c1)SCc1ccc(N=C=S)cc1
TGI (MALME-3M melanoma): 27.8 µM | TGI (NCI-H522 lung): 22.4 µM | TGI (SNB-75 CNS): 28 µM | TGI (LOX IMVI melanoma): 18.4 µM | TGI (COLO 205 colon): 30.6 µM | TGI (HL-60(TB) leukemia): > 100 µM | TGI (RPMI-8226 leukemia): 45.8 µM | TGI (SK-MEL-5 melanoma): 30.1 µM | TGI (UO-31 renal): 28.4 µM | TGI (ACHN renal): 28.7 µM | TGI (U251 CNS): 29.8 µM

COc1cc(Oc2nc3ccc(C(F)(F)F)cc3nc2-c2ccccc2)cc(OC)c1OC
TGI (MALME-3M melanoma): > 100 µM | TGI (NCI-H522 lung): > 100 µM | TGI (SNB-75 CNS): 23.5 µM | TGI (LOX IMVI melanoma): > 100 µM | TGI (COLO 205 colon): > 100 µM | TGI (HL-60(TB) leukemia): > 100 µM | TGI (RPMI-8226 leukemia): > 100 µM | TGI (SK-MEL-5 melanoma): 44.9 µM | TGI (UO-31 renal): > 100 µM | TGI (ACHN renal): 40.6 µM | TGI (U251 CNS): 28.5 µM

O=c1[nH]c2nc3ccccc3c(=O)n2/c1=C/c1ccco1
TGI (MALME-3M melanoma): > 100 µM | TGI (NCI-H522 lung): > 100 µM | TGI (SNB-75 CNS): > 100 µM | TGI (LOX IMVI melanoma): > 100 µM | TGI (COLO 205 colon): > 100 µM | TGI (HL-60(TB) leukemia): > 100 µM | TGI (RPMI-8226 leukemia): > 100 µM | TGI (SK-MEL-5 melanoma): > 100 µM | TGI (UO-31 renal): > 100 µM | TGI (ACHN renal): > 100 µM | TGI (U251 CNS): > 100 µM

CC[C@@]1(O)C(=O)OCc2c1cc1n(c2=O)Cc2c-1nc1ccccc1c2/C=N\NC(=O)C(N)CCSC (some centres not stated)
TGI (MALME-3M melanoma): 14.5 µM | TGI (NCI-H522 lung): 2.02 µM | TGI (SNB-75 CNS): 1.44 µM | TGI (LOX IMVI melanoma): 0.0368 µM | TGI (COLO 205 colon): 18.5 µM | TGI (HL-60(TB) leukemia): 2.66 µM | TGI (RPMI-8226 leukemia): 4.03 µM | TGI (SK-MEL-5 melanoma): 0.191 µM | TGI (UO-31 renal): 0.277 µM | TGI (ACHN renal): < 0.0506 µM | TGI (U251 CNS): 1.17 µM

COC(=O)C1CCC(=O)N1C(c1ccc2c(c1)OCO2)c1cc(OC)c(OC)c(OC)c1 (configuration not stated)
TGI (MALME-3M melanoma): > 100 µM | TGI (NCI-H522 lung): 24.4 µM | TGI (SNB-75 CNS): > 100 µM | TGI (LOX IMVI melanoma): > 100 µM | TGI (COLO 205 colon): > 100 µM | TGI (HL-60(TB) leukemia): > 100 µM | TGI (RPMI-8226 leukemia): > 100 µM | TGI (SK-MEL-5 melanoma): > 100 µM | TGI (UO-31 renal): > 100 µM | TGI (ACHN renal): > 100 µM | TGI (U251 CNS): > 100 µM

COc1ccc(C2=NOC(N)(c3ccc(OC)cc3)C2)cc1 (configuration not stated)
TGI (MALME-3M melanoma): > 100 µM | TGI (NCI-H522 lung): > 100 µM | TGI (SNB-75 CNS): > 100 µM | TGI (LOX IMVI melanoma): > 100 µM | TGI (COLO 205 colon): > 100 µM | TGI (HL-60(TB) leukemia): > 100 µM | TGI (RPMI-8226 leukemia): > 100 µM | TGI (SK-MEL-5 melanoma): > 100 µM | TGI (UO-31 renal): > 100 µM | TGI (ACHN renal): > 100 µM | TGI (U251 CNS): > 100 µM

CN(CCCNC(=O)c1cc(-c2ccccc2)nc2ccccc12)CCCNC(=O)c1cc(-c2ccccc2)nc2ccccc12
TGI (MALME-3M melanoma): 3.39 µM | TGI (NCI-H522 lung): 3.51 µM | TGI (SNB-75 CNS): 5.02 µM | TGI (LOX IMVI melanoma): 3.56 µM | TGI (COLO 205 colon): 3.14 µM | TGI (HL-60(TB) leukemia): 4.7 µM | TGI (RPMI-8226 leukemia): 10.6 µM | TGI (SK-MEL-5 melanoma): 3.08 µM | TGI (UO-31 renal): 6.52 µM | TGI (ACHN renal): 7.25 µM | TGI (U251 CNS): 4.05 µM

c1ccc(CC2COC(c3cccs3)=N2)cc1 (configuration not stated)
TGI (MALME-3M melanoma): > 100 µM | TGI (NCI-H522 lung): > 100 µM | TGI (SNB-75 CNS): > 100 µM | TGI (LOX IMVI melanoma): > 100 µM | TGI (COLO 205 colon): > 100 µM | TGI (HL-60(TB) leukemia): > 100 µM | TGI (RPMI-8226 leukemia): > 100 µM | TGI (SK-MEL-5 melanoma): > 100 µM | TGI (UO-31 renal): > 100 µM | TGI (ACHN renal): > 100 µM | TGI (U251 CNS): > 100 µM

CC(C)(C)NC(=O)CCC1C(C(=O)NC(C)(C)C)C2(Cl)C(Cl)=C(Cl)C1(Cl)C2(Cl)Cl (configuration not stated)
TGI (MALME-3M melanoma): > 100 µM | TGI (NCI-H522 lung): > 100 µM | TGI (SNB-75 CNS): > 100 µM | TGI (LOX IMVI melanoma): > 100 µM | TGI (COLO 205 colon): > 100 µM | TGI (HL-60(TB) leukemia): > 100 µM | TGI (RPMI-8226 leukemia): > 100 µM | TGI (SK-MEL-5 melanoma): > 100 µM | TGI (UO-31 renal): > 100 µM | TGI (ACHN renal): > 100 µM | TGI (U251 CNS): > 100 µM

CCc1ccc2c(c1)N(CC(C)CN(C)C)c1ccccc1S2 (configuration not stated)
TGI (MALME-3M melanoma): 8.37 µM | TGI (NCI-H522 lung): 7.96 µM | TGI (SNB-75 CNS): 9.94 µM | TGI (LOX IMVI melanoma): 10.3 µM | TGI (COLO 205 colon): 8.47 µM | TGI (HL-60(TB) leukemia): 8.66 µM | TGI (RPMI-8226 leukemia): 6.28 µM | TGI (SK-MEL-5 melanoma): 8.1 µM | TGI (UO-31 renal): 10.3 µM | TGI (ACHN renal): 15.5 µM | TGI (U251 CNS): 17.4 µM

CCN(CC)C1Oc2cc3c(cc2C(c2cccc(OC)c2OC)C1C)OCO3 (configuration not stated)
TGI (MALME-3M melanoma): 33.5 µM | TGI (NCI-H522 lung): 26.3 µM | TGI (SNB-75 CNS): 44.7 µM | TGI (LOX IMVI melanoma): 21.6 µM | TGI (COLO 205 colon): 17 µM | TGI (HL-60(TB) leukemia): 4.63 µM | TGI (RPMI-8226 leukemia): 16.4 µM | TGI (SK-MEL-5 melanoma): 21.3 µM | TGI (UO-31 renal): 40.5 µM | TGI (ACHN renal): 29.5 µM | TGI (U251 CNS): 32 µM
